Reference: patent US20180344637A1, “WATER SOLUBLE MICELLAR DRUG DELIVERY AGENTS” (Wayne State University, priority 2015, published 2018)
In brackets after ≈: the same amount, converted by molar mass.

Key:
AsPC-1 cells = experiment: In vitro MTT cytotoxicity assay; assay type: cell-based, human; conditions: 72 h
Experimental: (§1) Human pancreatic cancer cell lines MiaPaCa-2 and AsPC-1 were used. Both cell lines were maintained in Dulbecco's Modified Eagle's Medium (DMEM; Invitrogen), supplemented with 5% FBS, 2 mmol/L glutamine, 50 units/mL penicillin, and 50 μg/mL streptomycin under standard culture conditions. The cell lines have been tested and authenticated in the core facility of Applied Genomics Technology Center at Wayne State University. The method used for testing was short tandem repeat profiling using the PowerPlex 16 System from Promega.
(§2) The in vitro cytotoxicity of free CDF, CUR, SMA and micelles was evaluated by MTT cytotoxicity assay based on measurement of the activity of enzymes present in live cells that reduces MTT to give a purple color. Cells were seeded in a 96-well culture plate and the formulations were applied 24 h after seeding as freshly prepared solutions in PBS (pH 7.4) using between 100 to 1000 nM concentrations of the test agents. MTT (0.5 mg/ml) was added at the end of treatment (72 h) and plates incubated at 37° C. for 2 h, followed by replacement of media with DMSO at room temperature for 30 min and absorbance were measured at 590 nm using Ultra Multi-functional Micro plate Reader (TECAN).

MiaPaCa-2 cells [1] = experiment: In vitro MTT cytotoxicity assay; assay type: cell-based, human; conditions: 72 h
Experimental: as §1, §2

MiaPaCa-2 cells [2] = experiment: MTT assay before and after HA receptor blockade; assay type: cell-based, human; conditions: MiaPaCa-2, 72 h
Source text: FIG. 13(c) and FIG. 13(d) show comparisons of percent cell viability of different formulations before and after HA receptor blockade.

[3] = tested on: CD44+ cells (CD44+/CD133+/EpCAM+ CSLCs from MiaPaCa-2); experiment: MTT assay on CD44+ versus CD44− pancreatic cancer cells; assay type: cell-based, human; conditions: 72 h
Experimental: The CSLCs (triple-marker positive; CD44+/CD133+/EpCAM+) and triple-marker negative (CD44−/CD133−/EpCAM−) cells were isolated from human pancreatic MiaPaCa-2 cells, by fluorescence-activated cell sorting (FACS) technique. The postsorted cells were subsequently maintained in 5% FBS-DMEM media at 37° C. under standard culture conditions.
Triple-marker positive (CD44+/CD133+/EpCAM+) CSLCs and triple-marker-negative (CD44−/CD133−/EpCAM−) cells were isolated and cultured as described in above and seeded in a 96-well culture plate, and subsequently free CDF, HA-SMA, nontargeted (SMA-CDF), and targeted (HA-SMA-CDF) nanomicelles were applied 24 h after seeding as a freshly prepared solution in DMSO diluted with PBS (pH 7.4) at between 250 to 750 nM concentration, MTT reagent was added and the absorbance measured at 595 nm using an Ultramultifunctional Microplate Reader ([…], Switzerland), and percent cell viability was determined by comparing the values with appropriate controls.

CD44 = experiment: Western blot analysis of CD44 expression; assay type: cell-based, human; conditions: 250 nM, 48 h, triple marker positive CSLCs, versus untreated and HA-SMA controls
Experimental: Triple marker positive CSLCs derived from MiaPaCa-2 were plated and allowed to attach for 36 h. CDF loaded formulations were directly added to cell cultures at 250 nM concentration and incubated for 48 h. Untreated (control) and HASMA treated (control) cells were incubated in the medium containing an equivalent concentration of PBS. After incubation, the cells were collected in PBS, and whole cell lysate was prepared by suspending the cells in 150 μL of lysis buffer [1 mol/L Tris-HCl (pH 7.5), 150 mmol/L NaCl, 1 mmol/L EDTA, 0.1% Triton X-100, 0.1 mmol/L sodium orthovanadate, 1 mmol/L phenylmethylsulfonyl fluoride ([…]), and 2 μg/mL leupeptin and 2μg,/mL aprotinin] lysed, and centrifuged. The cells were disrupted by sonication (Branson Ultrasonics, Danbury, Conn.), and the total protein content was determined by bicinchoninic acid (BCA) assay. For immunoblotting, 30 μg of total proteins was separated on SDS-PAGE, electro-transferred onto nitrocellulose membranes, and probed with specific antibodies ([…], MA). Detection of specific proteins was carried out with an enhanced chemiluminescence western blotting kit according to the manufacturer's instructions (Life Technologies, Waltham, Mass.).

[4] = cited from earlier work

| IC50 (MiaPaCa-2 cells [2]; after receptor blockade using free soluble HA) [nM] | IC50 (MiaPaCa-2 cells [2]; before the blockade of HA receptors) [nM] | IC50 [3] [nM] | SMILES | IC50 (AsPC-1 cells) [nM] | cell viability (MiaPaCa-2 cells [1]; 1000 nM CDF equivalent concentration, MiaPaCa-2) [%] | anticancer activity compared to free CMN (in words) (MiaPaCa-2 cells [1]; MTT) | IC50 (MiaPaCa-2 cells [1]; MiaPaCa-2 cells) [nM] | expression of CD44 levels (in words) (CD44) | water solubility ([4]; free form) [µg/mL] | water solubility (estimated) [4] [µM] |
| --- | --- | --- | --- | --- | --- | --- | --- | --- | --- | --- |
| 473 ± 8.69 | 465 ± 7.34 | 410 ± 3.64 | COc1cc(/C=C/C(=O)C(=Cc2ccc(F)c(F)c2)C(=O)/C=C/c2ccc(O)c(OC)c2)ccc1O [CDF, curcumin difluorinated] | 810 ± 1.51 | 28.47±2.29 | significantly improved anticancer activity | 400 ± 4.53 | marked reduction | 0.6 (≈ 1.22 µM) |  |
|  |  |  | CC(=O)O[C@@]12CO[C@@H]1C[C@H](O)[C@@]1(C)C(=O)[C@H](O)C3=C(C)[C@@H](OC(=O)[C@H](O)[C@@H](NC(=O)OC(C)(C)C)c4ccccc4)C[C@@](O)([C@@H](OC(=O)c4ccccc4)[C@H]21)C3(C)C [Docetaxel, docetaxel] |  |  |  |  |  |  | 10 to 20 |
|  |  |  | CC(=O)O[C@H]1C(=O)[C@@]2(C)[C@H]([C@H](OC(=O)c3ccccc3)[C@]3(O)C[C@H](OC(=O)[C@H](O)[C@@H](NC(=O)c4ccccc4)c4ccccc4)C(C)=C1C3(C)C)[C@]1(OC(C)=O)CO[C@@H]1C[C@@H]2O [Paclitaxel, paclitaxel] |  |  |  |  |  |  | 10 to 20 |
